Experiments:
Assay type in all cases: biochemical
[1] = biological target: T1, recombinant human 17β-HSD1 (Homo sapiens, UniProt P14061); test: Inhibition of recombinant human 17β-HSD1 (estrone to estradiol conversion, HPLC/radioactivity); conditions: compound 100 nM; 30 nM estrone, 1 mM NADPH, 30 min RT
T1 construct: made in house; host or cells: Sd9 (Sf9) insect cells, baculovirus (Bac to Bac Expression System)
T1 sequence (P14061 1-328): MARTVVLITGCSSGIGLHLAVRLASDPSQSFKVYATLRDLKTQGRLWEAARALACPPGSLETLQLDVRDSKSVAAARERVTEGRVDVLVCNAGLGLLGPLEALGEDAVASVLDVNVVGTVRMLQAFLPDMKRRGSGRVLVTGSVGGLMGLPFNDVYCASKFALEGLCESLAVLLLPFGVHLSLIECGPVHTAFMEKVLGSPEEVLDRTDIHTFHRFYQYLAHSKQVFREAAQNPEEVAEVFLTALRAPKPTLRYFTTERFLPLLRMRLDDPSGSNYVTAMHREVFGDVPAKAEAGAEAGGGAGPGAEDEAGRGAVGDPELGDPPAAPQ
Method: 17β-HSD1 production and isolation: Recombinant baculovirus was generated by the “Bac to Bac Expression System” (Invitrogen). Recombinant bacmid was transfected to Sd9 insect cells using “Cellfectin Reagent” (Invitrogen). 60 h later cells were harvested; the microsomal fraction was isolated as described by Puranen, T. J., Poutanen, M. H., Peltoketo, H. E., Vihko, P. T. and Vihko, R. K. (1994) Site-directed mutagenesis of the putative active site of human 17 β-hydroxysteroid dehydrogenase type 1. Biochem. J. 304: 289-293. Aliquots were stored frozen until determination of enzymatic activity.
Assay—Inhibition of recombinant human 17β-HSD1: Recombinant protein (1 μg/ml) was incubated in 20 mM KH2PO4 pH 7.4 with 30 nM estrone (including 800 000 cpm/ml of ^3H-estrone) and 1 mM NADPH for 30 min at RT, in the presence of the potential inhibitor at concentrations 1 μM or 0.1 μM. Inhibitor stock solutions were prepared in DMSO. Final concentration of DMSO was adjusted to 1% in all samples. The enzyme reaction was stopped by addition of 10% trichloroacetic acid (final concentration). Samples were centrifuged in a microtiter plate at 4000 rpm for 10 min. Supernatants were applied to reverse phase HPLC on a Waters Symmetry C18 column, equipped with a Waters Sentry Guard column. Isocratic HPLC runs were performed at RT at a flow rate of 1 ml/min in acetonitrile:water 48:52 as running solvent. Radioactivity was monitored in the eluate by a Scintillation Analyzer. Total radioactivity for estrone and estradiol were determined in each sample and percent conversion of estrone to estradiol was calculated according to the following formula:
% conversion=100×{(cpm estradiol in sample with inhibitor)/[(cpm estrone in sample with inhibitor)+(cpm estradiol in sample with inhibitor)]}/{[(cpm estradiol in sample without inhibitor)/[(cpm estrone in sample without inhibitor)+(cpm estradiol in sample without inhibitor)]}.
(§1) Percent inhibition was calculated followingly: % inhibition=100−% conversion.

[2] = biological target: T2, recombinant human 17β-HSD2 (Homo sapiens, UniProt P37059); test: Inhibition of recombinant human 17β-HSD2 (estradiol to estrone conversion, HPLC/radioactivity); conditions: compound 1 μM; 50 nM estradiol, 1 mM NADH, 30 min RT
T2 construct: made in house; host or cells: Sd9 (Sf9) insect cells, baculovirus (Bac to Bac Expression System)
T2 sequence (P37059 1-387): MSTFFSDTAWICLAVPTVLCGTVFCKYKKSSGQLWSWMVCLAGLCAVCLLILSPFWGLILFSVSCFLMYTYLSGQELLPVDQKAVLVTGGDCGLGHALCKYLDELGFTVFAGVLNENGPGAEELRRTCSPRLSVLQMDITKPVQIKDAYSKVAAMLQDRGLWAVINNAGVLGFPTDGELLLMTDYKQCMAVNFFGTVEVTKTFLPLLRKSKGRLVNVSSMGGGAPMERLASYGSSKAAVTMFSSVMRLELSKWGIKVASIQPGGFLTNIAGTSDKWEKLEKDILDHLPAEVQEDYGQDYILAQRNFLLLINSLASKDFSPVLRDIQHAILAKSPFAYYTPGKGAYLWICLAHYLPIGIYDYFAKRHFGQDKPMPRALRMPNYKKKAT
Method: 17β-HSD2 production and isolation: Similarly to 173-HSD1 the Recombinant baculovirus was generated by the “Bac to Bac Expression System” (Invitrogen). Recombinant bacmid was transfected to Sd9 insect cells using “Cellfectin Reagent” (Invitrogen). 60 h later cells were harvested and supernatant were fractionated by the following protocol: • cells were dissolved into 40 ml of A-buffer (40 mM TRIS, pH8.0, 20% glycerol, 20 μM NAD, 0.4 mM PMSF, 150 mM NaCl, 0.5% dodecyl-β-maltoside+protease inhibitor cocktail) • cells were sonicated • lysate was incubated on ice for 15 min • lysate was centrifuged 5000 rpm 15 min, +4° C. • centrifugation of the supernatant 180 000 g 30 min, +4° C. • pellet was dissolved into 8 ml of A-buffer • not resuspended material was removed by centrifugation 5000 rpm 15 min, +4° C. • the clear supernatant was divided into 100 μl aliquots and were stored frozen until determination of enzymatic activity.
The amount of 173-HSD2 was analysed by immunoblotting and total protein concentration of each extract batch was determined.
Assay—Inhibition of recombinant human 17β-HSD2: Recombinant protein (4 μg/ml) was incubated in 20 mM KH2PO4 pH 8.5 with 50 nM estradiol (including 800 000 cpm/ml of ^3H-estradiol) and 1 mM NADH for 30 min at RT, in the presence of the potential inhibitor at concentrations 1 μM or 0.1 μM. Inhibitor stock solutions were prepared in DMSO. Final concentration of DMSO was adjusted to 1% in all samples. The enzyme reaction was stopped by addition of 10% trichloroacetic acid (final concentration). Samples were centrifuged in a microtiter plate at 4000 rpm for 10 min. Supernatants were applied to reverse phase HPLC on a Waters Symmetry C18 column, equipped with a Waters Sentry Guard column. Isocratic HPLC runs were performed at RT at a flow rate of1 ml/min in acetonitrile:water 48:52 as running solvent. Radioactivity was monitored in the eluate by a Scintillation Analyzer. Total radioactivity for estrone and estradiol were determined in each sample and percent conversion of estradiol to estrone was calculated according to the following formula:
% conversion=100×{(cpm estrone in sample with inhibitor)/[(cpm estradiol in sample with inhibitor)+(cpm estrone in sample with inhibitor)]}/{[(cpm estrone in sample without inhibitor)/[(cpm estradiol in sample without inhibitor)+(cpm estrone in sample without inhibitor)]}.
as §1

[3] = tested on: HSD1 enzyme that is expressed in rabbit placenta tissue; test: Inhibition of E1 to E2 conversion in rabbit placenta tissue homogenate; conditions: compound 100 nM, 30 nM estrone, 1 mM β-NADPH, 30 min
Method: The assay is based on an enzymatic reaction where HSD1 enzyme that is expressed in rabbit placenta tissue converts its natural substance estrone (E1) to estradiol (E2) in the presence of a co-factor β-NADPH.
Homogenization of rabbit placenta tissue: Weight a piece of the frozen tissue into a Precellys ck28 bead tube. Add buffer solution (20 mM KH2PO4 with 1 mM EDTA, pH 7.4) in 1:2 ratio (e.g. 300 mg of tissue:600 μl reaction buffer solution). Insert the bead tubes to homogenizer and homogenize 2×30 s. 6000 rpm.
Centrifugated 5 min., 2600 rpm at +4° C. and collect supernatant. Aliquots of homogenate are stored in −80° C.
Assay—Inhibition of E1 to E2 conversion in rabbit placenta tissue: The reaction takes place in a buffer solution (20 mM KH2PO4 with 1 mM EDTA, pH 7,4), including appropriate amount of rabbit placenta homogenate, co-factor (1 mM β-NADPH), Substrate (30 nM estrone), labelled substrate as tracer (5 nM [^3H]-estrone), and the potential inhibitor at concentrations 1 μM or 0.1 μM. Inhibitor stock solutions were prepared in DMSO. Final concentration of DMSO was adjusted to 1% in all samples. During a 30-minute incubation part of the estrone is converted to estradiol. The reaction is stopped by lowering the pH to 1 with 10% trichloro acetic acid (TCA). The substrate and conversion products are analyzed by HPLC and a Scintillation counter analyzer. Total radioactivity for estrone and estradiol were determined in each sample and percent conversion of estrone to estradiol was calculated according to the following formula:
% conversion=100×{(cpm estradiol in sample with inhibitor)/[(cpm estrone in sample with inhibitor)+(cpm estradiol in sample with inhibitor)]}/{(cpm estradiol in sample without inhibitor)/[(cpm estrone in sample without inhibitor)+(cpm estradiol in sample without inhibitor)]}.
as §1

Row | SMILES | inhibition at 0.1 µM [1] [%] | inhibition at 1 µM [2] [%] | Rabbit placenta inhibition % @100 nM [3] [%]
1 | C[C@]12CCC3c4ccc(F)cc4CCC3C1[C@H](CCC(=O)Nc1cnccn1)c1c[nH]nc12 (stereo partly drawn) [Compound 120, 3-((8aS,12S)-4-fluoro-8a-methyl-1,2,6b,7,8,8a,10,12,12a,12b-decahydronaphtho[2′,1′:4,5]indeno[1,2-c]pyrazol-12-yl)-N-(pyrazin-2-yl)propanamide] | 67 | 4 | 34
2 | C[C@]12CCC3c4ccc(Cl)cc4CCC3C1[C@H](CCC(=O)Nc1cc(F)ccn1)c1c[nH]nc12 (stereo partly drawn) [Compound 129, 3-((8aS,12S)-4-chloro-8a-methyl-1,2,6b,7,8,8a,10,12,12a,12b-decahydronaphtho[2′1′:4,5]indeno[1,2-c]pyrazol-12-yl)-N-(4-fluoropyridin-2-yl)propanamide] | 84 | 8 | 28
3 | C[C@]12CCC3c4ccc(Cl)cc4CCC3C1[C@H](CCC(=O)Nc1cccc(F)n1)c1c[nH]nc12 (stereo partly drawn) [Compound 135, 3-((8aS,12S)-4-chloro-8a-methyl-1,2,6b,7,8,8a,10,12,12a,12b-decahydronaphtho[2,1′:4,5]indeno[1,2-c]pyrazol-12-yl)-N-(6-fluoropyridin-2-yl)propanamide] | 86 | 2 | 31
4 | C[C@]12CCC3c4ccccc4CCC3C1[C@H](CCC(=O)NC1CCOCC1)c1c[nH]nc12 (stereo partly drawn) [Compound 153, 3-((8aS,12S)-8a-methyl-1,2,6b,7,8,8a,10,12,12a,12b-decahydronaphtho[2′,1′:4,5]indeno[1,2-c]pyrazol-12-yl)-N-(tetrahydro-2H-pyran-4-yl)propanamide] | 85 | 4 | 10
5 | CN(CC1CC1)C(=O)CC[C@@H]1c2c[nH]nc2[C@@]2(C)CCC3c4ccccc4CCC3C12 (stereo partly drawn) [Compound 174, N-(cyclopropylmethyl)-N-methyl-3-((8aS,12S)-8a-methyl-1,2,6b,7,8,8a,10,12,12a,12b-decahydronaphtho[2′,1′:4,5]indeno[1,2-c]pyrazol-12-yl)propanamide] | 88 | 10 | 14
6 | C[C@]12CCC3c4ccccc4CCC3C1[C@H](CCC(=O)N1CCC3(CCOCC3)C1)c1c[nH]nc12 (stereo partly drawn) [Compound 177, 3-((8aS,12S)-8a-methyl-1,2,6b,7,8,8a,10,12,12a,12b-decahydronaphtho[2′,1′:4,5]indeno[1,2-c]pyrazol-12-yl)-1-(8-oxa-2-azaspiro[4.5]decan-2-yl)propan-1-one] | 89 | 4 | 16
7 | C[C@]12CCC3c4ccccc4CCC3C1[C@H](CCC(=O)N1Cc3ccccc3C1)c1c[nH]nc12 (stereo partly drawn) [Compound 180, 1-(isoindolin-2-yl)-3-((8aS,12S)-8a-methyl-1,2,6b,7,8,8a,10,12,12a,12b-decahydronaphtho[2′,1′:4,5]indeno[1,2-c]pyrazol-12-yl)propan-1-one] | 92 | 12 | 14
8 | CN(C)C(=O)c1ccc(NC(=O)CC[C@@H]2c3c[nH]nc3[C@@]3(C)CCC4c5ccccc5CCC4C23)nc1 (stereo partly drawn) [Compound 183, N,N-dimethyl-6-(3-((8aS,12S)-8a-methyl-1,2,6b,7,8,8a,10,12,12a,12b-decahydronaphtho[2′,1′:4,5]indeno[1,2-c]pyrazol-12-yl)propanamido)nicotinamide] | 91 | 10 | 50
9 | Cn1ccc(NC(=O)CC[C@@H]2c3c[nH]nc3[C@@]3(C)CCC4c5ccccc5CCC4C23)n1 (stereo partly drawn) [Compound 186, 3-((8aS,12S)-8a-methyl-1,2,6b,7,8,8a,10,12,12a,12b-decahydronaphtho[2′,1′:4,5]indeno[1,2-c]pyrazol-12-yl)-N-(1-methyl-1H-pyrazol-3-yl)propanamide] | 81 | 1 | 11
10 | C[C@]12CCC3c4ccccc4CCC3C1[C@H](CCC(=O)NC1CCC1)c1c[nH]nc12 (stereo partly drawn) [Compound 192, N-cyclobutyl-3-((8aS,12S)-8a-methyl-1,2,6b,7,8,8a,10,12,12a,12b-decahydronaphtho[2′,1′:4,5]indeno[1,2-c]pyrazol-12-yl)propanamide] | 86 | 2 | 14

Source: patent US20220041647A1, “ESTRA-1,3,5(10)-TRIENE COMPOUNDS CONDENSED IN POSITION 16(17) WITH A PYRAZOLE RING AS INHIBITORS OF 17-HSD1” (FORENDO PHARMA LTD, priority 2018, published 2022)
